PMC3522777 (Nature chemical biology, 2012)

Columns and labels:
[1] = target: T1, dihydroceramide desaturase-1 (DES1) (Gallus gallus, UniProt Q5F3C1); type: biochemical
T1 sequence (Q5F3C1 1-323): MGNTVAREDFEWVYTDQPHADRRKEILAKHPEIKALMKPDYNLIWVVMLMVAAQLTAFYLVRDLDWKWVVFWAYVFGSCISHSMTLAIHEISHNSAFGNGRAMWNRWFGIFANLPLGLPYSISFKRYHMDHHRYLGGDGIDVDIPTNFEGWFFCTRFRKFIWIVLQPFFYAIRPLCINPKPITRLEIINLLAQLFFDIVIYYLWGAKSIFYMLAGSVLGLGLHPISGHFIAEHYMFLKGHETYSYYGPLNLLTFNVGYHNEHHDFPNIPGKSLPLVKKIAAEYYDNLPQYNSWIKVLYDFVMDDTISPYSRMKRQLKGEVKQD

[2] = target: DES1 (Homo sapiens, UniProt O15121); assay: retinol isomerase assay in homogenates of transfected […] cells, HPLC; type: cell-based
[3] = target: T1, dihydroceramide desaturase-1 (DES1); assay: retinol isomerase assay with purified GST-DES1, HPLC of products; type: biochemical

Sequence of DES1 (O15121 2-323): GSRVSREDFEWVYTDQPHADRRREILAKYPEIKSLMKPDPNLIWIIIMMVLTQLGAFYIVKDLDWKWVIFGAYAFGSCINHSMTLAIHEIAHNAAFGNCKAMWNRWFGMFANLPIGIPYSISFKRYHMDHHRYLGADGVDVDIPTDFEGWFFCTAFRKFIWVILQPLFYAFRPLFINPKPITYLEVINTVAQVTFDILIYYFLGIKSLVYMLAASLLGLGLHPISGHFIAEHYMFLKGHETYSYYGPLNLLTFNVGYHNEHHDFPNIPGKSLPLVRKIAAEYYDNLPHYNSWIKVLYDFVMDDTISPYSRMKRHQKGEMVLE

Ki [1] [µM] | Compound | retinol isomerase assay in homogenates of transfected 293T cells, HPLC [2] | retinol isomerase assay with purified GST-DES1, HPLC of products [3]
8.5 | CC1=C(/C=C/C(C)=C/C=C/C(C)=C/C(=O)Nc2ccc(O)cc2)C(C)(C)CCC1 [4-HPR, fenretinide] |  | 
 | CC1=C(/C=C/C(C)=C/C=C/C(C)=C/CO)C(C)(C)CCC1 [all-trans-ROL, all-trans-retinol] | The rate of 11-cis-ROL synthesis was dramatically higher for DES1 versus the other membrane desaturases | Purified GST-DES1 exhibited dramatically higher isomerase-2 activities
